Values of other authors as cited in patent US8541630B2, “Process for producing dimethyl ether from methanol” (China Petroleum & Chemical Corporation, priority 2008, dated 2013).
Read-outs that look alike come from different tables or passages of the source.

Solubility (solvent Acetone (25° C.)): 11.83 wt %
Solubility (solvent Benzene (25° C.)): 15.29 wt %
Solubility (solvent CCl4 (25° C.)): 16.33 wt %
Solubility (solvent Chlorobenzene (106 kPa, 25° C.)): 18.56 wt %
Solubility (solvent Gasoline, 0° C.): 19 wt %
Solubility (solvent Gasoline, 25° C.): 7 wt %
Solubility (solvent Gasoline, −40° C.): 64 wt %
Solubility (solvent Methyl acetate (93.86 kPa, 25° C.)): 11.1 wt %
Solubility (solvent Water (24° C.)): 35.3 wt %
SMILES: COC [DME, Dimethyl ether]
